Test results reported in article PMC8267945, “Plumbagin, a Natural Product with Potent Anticancer Activities, Binds to and Inhibits Dihydroorotase, a Key Enzyme in Pyrimidine Biosynthesis” (International Journal of Molecular Sciences, 2021).
“Also recorded” adds a separate entry of the source.

Legend:
huDHOase = target: T1, huDHOase (Homo sapiens, UniProt P27708); assay: rapid spectrophotometric DHOase enzyme assay (hydrolysis of DHO); format: biochemical; conditions: for inhibition of huDHOase (in words): 200 μM for the compounds of Figure 2, AZT concentration not given; for decrease of the activity of huDHOase: 200 μM compound in the standard assay
T1 construct: huDHOase1456-1846-NdeI-N; made in house; host or cells: E. coli BL21(DE3)
T1 sequence (P27708 1456-1846): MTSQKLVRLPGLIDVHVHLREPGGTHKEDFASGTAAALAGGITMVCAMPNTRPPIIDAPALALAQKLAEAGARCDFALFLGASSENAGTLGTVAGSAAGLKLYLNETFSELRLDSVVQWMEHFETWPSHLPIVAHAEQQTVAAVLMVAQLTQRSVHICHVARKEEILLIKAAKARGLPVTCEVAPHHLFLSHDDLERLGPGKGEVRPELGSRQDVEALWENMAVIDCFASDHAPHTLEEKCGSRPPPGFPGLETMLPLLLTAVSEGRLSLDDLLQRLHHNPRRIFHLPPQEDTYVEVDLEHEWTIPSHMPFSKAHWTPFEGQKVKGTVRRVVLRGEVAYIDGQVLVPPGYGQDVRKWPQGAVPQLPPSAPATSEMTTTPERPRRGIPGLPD
Protocol: A rapid spectrophotometric assay was used to determine the activity of DHOase. Briefly, the hydrolysis of DHO was measured at 25 °C as the decrease in absorbance at 230 nm. The purified DHOase was added to a 2 mL solution containing 0.5 mM DHO and 100 mM Tris–HCl at pH 8.0 to start the reaction. […] The hydrolysis of DHO was monitored using a UV/Vis spectrophotometer (Hitachi U 3300; Hitachi High-Technologies, Tokyo, Japan). A unit of activity was defined as the amount of enzyme catalyzing the hydrolysis of 1 μmol DHO/min, and the specific activity was expressed in terms of units of activity per mg of enzyme. The kinetic parameters Km and Vmax were determined from a nonlinear plot by fitting the hydrolyzing rate from individual experiments to the Michaelis–Menten equation (Enzyme Kinetics module of Sigma-Plot; Systat Software, Chicago, IL, USA).

ScDHOase [1] = target: T2, ScDHOase (Saccharomyces cerevisiae, UniProt P20051); assay: fluorescence quenching binding assay; conditions: for quenching of the intrinsic fluorescence of ScDHOase: 200 μM compound, 324 nm, excitation 280 nm
T2 construct: made in house; host or cells: E. coli BL21(DE3)
Protocol: Figure 7 The data used to calculate the Kd values of various DHOases. (A) The fluorescence emission spectra of ScDHOase with PLU of different concentrations (0–200 μM; 0, 10, 20, 50, 75, 100, 125, 150, 175, and 200 μM). The decrease in intrinsic fluorescence of protein was measured at 324 nm upon excitation at 280 nm with a spectrofluorometer. […] (B) The fluorescence emission spectra of huDHOase with PLU of different concentrations (0–200 μM). (C) The fluorescence emission spectra of StDHOase with PLU of different concentrations. (D) The fluorescence emission spectra of ScDHOase–R18A with PLU of different concentrations. (E) The fluorescence emission spectra of ScDHOase–T106A with PLU of different concentrations. […] (F) An aliquot amount of PLU was added to the enzyme solution to determine the Kd. The Kd was obtained by the following equation: ΔF = ΔFmax − Kd(ΔF/[PLU]). Data points are an average of 2–3 determinations within a 10% error.
The decrease in the intrinsic fluorescence of DHOase was measured with a spectrofluorometer (Hitachi F-2700; Hitachi High-Technologies, Japan). The Kd was obtained using the following equation: ΔF = ΔFmax − Kd(ΔF/[PLU]).
The Kd value of the purified DHOase was determined using the fluorescence quenching method as previously described for DHOase, DHPase, and DnaB helicase. Briefly, an aliquot of the compound was added into the solution containing DHOase (1 μM) and 50 mM HEPES at pH 7.0. The decrease in the intrinsic fluorescence of DHOase was measured at 324 nm upon excitation at 280 nm and 25 °C with a spectrofluorometer (Hitachi F-2700; Hitachi High-Technologies, Japan). The Kd was obtained using the following equation: ΔF = ΔFmax − Kd(ΔF/[PLU]).

ScDHOase [2] = target: T2, ScDHOase; conditions: cited from earlier work
Plasmodium falciparum = tested on: Plasmodium falciparum; parameters: method as in PMID 2675756; conditions: read-out: concentration giving 50% growth inhibition of parasites; cited from earlier work
in vitro = format: cell-based, mouse; conditions: mouse
Protocol: The 4T1 cells (1 × 10^4) were incubated with PLU in a 100 μL volume. After 24 h, the anticancer potentiality was estimated.

4T1 cells [3] = assay: wound-healing assay; format: cell-based, mouse; conditions: 5-FU 5 μM
Protocol: The wound-healing assay was performed to study whether PLU can inhibit 4T1 cell migration. Briefly, 4T1 cells were seeded in 24-well plates, incubated in serum-reduced medium for 6 h, wounded in a line across the well with a 200 μL pipette tip, and washed twice with the serum-reduced medium. After different treatments, cells were incubated for 24 h to allow migration.

4T1 cells [4] = assay: chromatin condensation assay (Hoechst staining); format: cell-based, mouse; conditions: 5-FU 5 μM
Protocol: The apoptosis in 4T1 cells was assayed with Hoechst 33342 staining. The 4T1 cells were seeded in 6-well plates at a density of 5 × 10^5 cells per well in a volume of […] of culture medium. Cells were allowed to adhere for 16 h. After different treatments, cells were incubated for an additional 24 h, washed with PBS, stained with the Hoechst dye (1 μg·mL^−1) in the dark at RT for 10 min, and imaged using an inverted fluorescence microscope (Axiovert 200 M; Zeiss Axioplam, Oberkochen, Germany) at excitation and emission wavelengths (λem) of 360 and 460 nm, respectively. The apoptotic index was calculated as follows: apoptotic index = apoptotic cell number/(apoptotic cell number + nonapoptotic cell number).

4T1 cells [5] = assay: clonogenic formation assay; format: cell-based, mouse; conditions: 5-FU 5 μM
Protocol: A clonogenic formation assay was used to assess the 4T1 cell growth to study whether the PLU can inhibit 4T1 cell proliferation. Briefly, 4T1 cells were seeded at a density of 10^3 cells per well into 6-well plates and incubated overnight for attachment. After different treatments, plates were incubated for 5–7 days to allow clonogenic growth. After washing with PBS, colonies were fixed with methanol and stained with 0.5% crystal violet for 20 min, and the number of colonies was counted under a light microscope.

T2 sequence (P20051 whole entry): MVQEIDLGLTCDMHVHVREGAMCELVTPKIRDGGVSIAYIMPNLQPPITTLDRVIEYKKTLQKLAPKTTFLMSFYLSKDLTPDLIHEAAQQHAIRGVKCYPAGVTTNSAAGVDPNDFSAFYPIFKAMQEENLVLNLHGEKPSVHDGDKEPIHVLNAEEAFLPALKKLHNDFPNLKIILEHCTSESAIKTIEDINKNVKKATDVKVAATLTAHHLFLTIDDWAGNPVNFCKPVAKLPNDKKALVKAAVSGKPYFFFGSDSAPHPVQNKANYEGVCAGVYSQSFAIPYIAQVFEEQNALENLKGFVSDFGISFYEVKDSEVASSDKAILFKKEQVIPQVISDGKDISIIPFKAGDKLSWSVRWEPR

In the case of `Nc1n[nH]c(N)n1` [3,5-diamino-1,2,4-triazole], the “inhibition of huDHOase (in words)” value (huDHOase) is reported as “None of these compounds decreased the activity of huDHOase” and the “quenching of the intrinsic fluorescence of ScDHOase” value (shortened to “quenching”) (ScDHOase [1]) is reported as 3.9%.

For `CC(=O)NO` [Acetohydroxamate], the “quenching” value (ScDHOase [1]) was 2.5%.

In the case of `Nc1c[nH]c(=O)[nH]c1=O` [5-AU, 5-aminouracil], the “inhibition of huDHOase (in words)” value (huDHOase) is listed as “did not inhibit the activity of huDHOase” and the “λmax of ScDHOase emission (red shift)” value (ScDHOase [2]) is listed as “from 324 to 335.5”.

In the case of `Cc1cn([C@H]2C[C@H](N=[N+]=[N-])[C@@H](CO)O2)c(=O)[nH]c1=O` [AZT], the “inhibition of huDHOase (in words)” value (huDHOase) is reported as “did not inhibit the activity of huDHOase”.

For `O=C(O)CC(O)C(=O)O` (stereo not shown) [malate], the “decrease of the activity of huDHOase” value (huDHOase) was 6% and the “quenching” value (ScDHOase [1]) was 10.9%.

With `O=C(O)CC1NC(=O)NC1=O` (stereo not shown) [5-HAA, 5-hydantoinacetic acid] the “inhibition of huDHOase (in words)” value (huDHOase) was “did not inhibit huDHOase” and the “quenching” value (ScDHOase [1]) was 1.5%.

For `O=C(O)c1[nH]c(=O)[nH]c(=O)c1F` [5-FOA, 5-fluoroorotate], the “decrease of the activity of huDHOase” value (huDHOase) is given as 26%, the “quenching” value (ScDHOase [1]) is given as 78.2% and the IC50 (Plasmodium falciparum) is given as 0.006 µM.

In the case of `CC(=O)NCCc1cnc[nH]1` [N-ω-acetylhistamine], the “inhibition of huDHOase (in words)” value (huDHOase) is reported as “None of these compounds decreased the activity of huDHOase” and the “quenching” value (ScDHOase [1]) is reported as 2.8%.

For `O=c1[nH]cc(F)c(=O)[nH]1` [5-FU, 5-fluorouracil], the “inhibition of huDHOase (in words)” value (huDHOase) was “did not inhibit the activity of huDHOase; also recorded: cannot inhibit DHOase”, the mortality at 24 h, 5 μM (in vitro) was 27% and the Migration rate (4T1 cells [3]) was 65%. For the same compound, the Apoptotic rate (4T1 cells [4]) was 26%, the Colony count (4T1 cells [5]) was 54% and the “λmax of ScDHOase emission (red shift)” value (ScDHOase [2]) was “from 324 to 335.5”.

For `O=C(O)c1cc(=O)[nH]c(=O)[nH]1` [orotic acid], the Kd (ScDHOase [1]) was 198.3 ± 1.2 µM and the “quenching” value (ScDHOase [1]) was 65.9%.

In the case of `O=C1CCC(C(=O)O)NC(=O)N1` (stereo not shown) [DDCA, 2,7-dioxo-1,3-diazepane-4-carboxylic acid], the “inhibition of huDHOase (in words)” value (huDHOase) is reported as “did not inhibit huDHOase” and the “quenching” value (ScDHOase [1]) is reported as 3.0%.

With `Nc1nc[nH]n1` [3-amino-1,2,4-triazole] the “inhibition of huDHOase (in words)” value (huDHOase) was “None of these compounds decreased the activity of huDHOase” and the “quenching” value (ScDHOase [1]) was 2.8%.

With `CSc1nnn[nH]1` [5-methylthio-1H-tetrazole] the “inhibition of huDHOase (in words)” value (huDHOase) was “None of these compounds decreased the activity of huDHOase” and the “quenching” value (ScDHOase [1]) was 2.3%.

In the case of `N=C1NC(=O)CC(C(=O)O)S1` (stereo not shown) [ITCA, 2-imino-4-oxo-1,3-thiazinane-6-carboxylic acid], the “decrease of the activity of huDHOase” value (huDHOase) is reported as 12% and the “quenching” value (ScDHOase [1]) is reported as 15.6%.
